Target: T1, IGFBP7 (endogenous, HK-2 cells, CETSA) (Homo sapiens, UniProt Q16270)
T1 sequence (Q16270 27-282): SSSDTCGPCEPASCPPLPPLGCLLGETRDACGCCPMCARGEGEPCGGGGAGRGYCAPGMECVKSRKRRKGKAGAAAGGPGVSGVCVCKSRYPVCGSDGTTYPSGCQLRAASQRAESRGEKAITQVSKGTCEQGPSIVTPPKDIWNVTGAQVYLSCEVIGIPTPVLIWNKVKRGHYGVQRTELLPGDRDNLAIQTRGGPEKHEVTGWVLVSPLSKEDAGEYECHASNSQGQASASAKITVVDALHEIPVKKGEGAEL
Assay: cellular thermal shift assay, immunoblot
Type: cell-based
Conditions: HK-2 cells with or without LA pretreatment, then lysed and heated

## CN1c2c(nc(N)[nH]c2=O)NC[C@@H]1CNc1ccc(C(=O)N[C@@H](CCC(=O)O)C(=O)O)cc1 [levomefolic acid]
  cellular thermal shift assay, immunoblot: analysis showing the stabilisation of IGFBP7 in vitro, with or without LA treatment

Source: publication PMC12764611 (Nature Communications, 2025)
